Assay results taken from patent publication US20250275950A1, “RIFAXIMIN AND N-ACETYL CYSTEINE FORMULATIONS” (Cedars-Sinai Medical Center, priority 2022, published 2025).
Values after ≈ are worked out from the molar mass of the structure shown.

Test system: E. Coli and Klebsiella
Experiment: In vitro dilution growth/cidal experiments
Type: cell-based
Protocol: In vitro dilution growth/cidal experiments were conducted on E. Coli and Klebsiella to determine doses of rifaximin and NAC, including lowest doses of rifaximin and lowest doses of NAC.

Structure (SMILES) | effect of NAC on effectiveness of rifaximin in killing E. coli and Klebsiella | MIC (Escherichia coli, with NAC concentration of 0.125 mg/mL, E. Coli and Klebsiella, organism of the value not specified, read-out: minimal inhibitory concentration (MIC) for rifaximin) [µg/mL]
CC(=O)N[C@@H](CS)C(=O)O [NAC, N-acetylcysteine] | improves the effectiveness of rifaximin | 
CO[C@H]1/C=C/O[C@@]2(C)Oc3c(C)c(O)c4c(O)c(c5c(nc6cc(C)ccn65)c4c3C2=O)NC(=O)/C(C)=C\C=C\[C@H](C)[C@H](O)[C@@H](C)[C@@H](O)[C@@H](C)[C@H](OC(C)=O)[C@@H]1C [rifaximin] |  | 4 (≈ 5.09 µM)
